Consider one compound from ChEMBL document CHEMBL1201862, “PubChem BioAssay data set” (2004).

Some test systems named below: HCT-15; OVCAR-3; T47D; NCI/ADR-RES; NCI-H23; MOLT-4; UACC-62; RPMI-8226; SF-295; TK-10; HT-29; HCT-116; NCI-H460; A498; SK-OV-3; EKVX; ACHN; IGROV-1; Hs-578T; OVCAR-5.
Assay in all cases: DTP human tumour cell line panel, 48 h

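1) Cells in 96-well plates. 2) Compound, 48 h, 5 concentrations. 3) Linear interpolation between surrounding doses. 4) Unreached endpoint = highest concentration. The concentration for 50% growth inhibition is given as GI50.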 Activity calls are given as the source filed them. Rule as the data show it: active = GI50 up to about 1.1 µM and inactive = higher.

Consider `CC(=O)c1sc2c(c1OC(=O)c1ccccc1)c(=O)n(-c1ccccc1)c(=S)n2-c1ccccc1`, for which the GI50 with HCT-15 is 18 µM; with OVCAR-3 it was 17.9 µM (inactive); with T47D it was 9.23 µM (inactive); in the test with NCI/ADR-RES it was 4.65 µM (inactive); in the test with NCI-H23 it was 27.3 µM (inactive); in the test with MOLT-4, 2.26 µM (inactive). Further, the GI50 in the test with UACC-62 was 13.4 µM (inactive); with RPMI-8226, 3.12 µM (inactive); in the test with SF-295, 2.48 µM (inactive); in the test with TK-10, 24 µM (inactive); in the test on HT-29 it was 2.93 µM (inactive); with HCT-116, 13.4 µM (inactive). Besides, the GI50 was 11.2 µM (inactive) in the test on NCI-H460; 2.49 µM (inactive) in the test with A498; 4.14 µM (inactive) in the test with SK-OV-3; 15.9 µM (inactive) with EKVX; 3.03 µM (inactive) with ACHN; 23.3 µM (inactive) with IGROV-1. The GI50 is 3.74 µM (inactive) with Hs-578T and 3.82 µM (inactive) in the test with OVCAR-5.
